The record followed here is patent US20210055311A1, “SCREENING METHOD FOR ESTROGENIC AND ANTI-ESTROGENIC ACTIVITY” (BUNDESINSTITUT FÜR RISIKOBEWERTUNG, priority 2018, published 2021).

The subject of assay [1] is MCF7/vBOS cells (DSM ACC3321). As to the kind of experiment: Formation of discontinuous basolateral adherens junctions upon anti-estrogen exposure (E-Cadherin immunofluorescence). In kind it is cell-based, human. As to conditions: for Concentration (M) suitable for manifestation of the discontinuous basolateral adherens junctions phenotype / Culture time (h) typically required for formation of discontinuous basolateral adherens junctions: cell as deposited under DSM ACC3321; for formation of discontinuous adherens junctions (E-Cadherin staining): concentration and incubation time per compound as in FIGS. 1-3. The text has this:
The time usually required for formation of discontinuous basolateral adherens junctions will depend on the estrogen receptor binding affinity and concentration of the anti-estrogen used on the one hand and the cell used on the other hand, but a person skilled in the art will be readily capable of determining the appropriate time spans and concentration for a given anti-estrogen and cell. For example, if the cell is a cell as deposited under accession number DSM ACC3321, suitable concentration ranges and culture times for manifestation of the discontinuous basolateral adherens junctions phenotype in presence of fulvestrant, tamoxifen, ZK 164015, MPP dihydrochloride, and (Z)-4-hydroxytamoxifen, without being limited thereto, are:
MCF7/vBOS cells were grown on glass coverslips in multi-well tissue culture plates (TPP) for 24 h and then treated for at least 48 h with 0.1% EtOH (solvent control) and different concentrations (10^−11 M, 10^−10 M, 10^−9 M, 10^−8 M, 10^−7 M) of the ERα antagonist fulvestrant (Sigma-Aldrich, CAS-No. 129453-61-8). During experiments, medium was exchanged on a daily basis. All experiments were performed at 37° C. with 5% CO2 in reduced-serum medium (phenol red-free DMEM (Gibco), 5% FBS (Biochrom, S 0615, LOT1353 W), 1% glutamine, 100 μg/ml streptomycin/100 U/ml penicillin (Biochrom)).
After treatment with fulvestrant the adherens junction morphology of the cells was analysed by means of immunofluorescence microscopy. Briefly, cells were fixed with 3.7% formaldehyde in PBS for 15 min, permeabilized with 0.2% Triton X-100 in PBS for 30 min, and blocked with 5% FBS in PBS for 60 min (all steps at room temperature). Incubation with primary and secondary antibodies in PBS containing 1.5% BSA was carried out over night at 4° C. and for 1 h at room temperature, respectively. The following antibodies/dyes were used: anti-E-Cadherin (H-108, Santa Cruz); DAPI (Roche); secondary antibody conjugated to Cy3 (alternatives are, e.g.: Cy2, Alexa Fluor 488/555/647; all Invitrogen). The samples were then mounted in Dako fluorescence mounting medium (Dako) or VectaShield (Vector Labs). All images were acquired with an Axio Observer.Z1 widefield microscope equipped with an Apotome.2 device for optical sectioning using structured illumination (Zeiss). After 48 hours the fraction of cells displaying discontinuous adherens junctions was determined by CellProfiler/CellProfer-analyst software (see example 7).
In view of the results obtained with MCF7/vBOS cells upon exposure to fulvestrant the inventors speculated that a similar phenotype might be obtainable with other ERα antagonist as well. To test this hypothesis, the inventors used the ERα antagonists tamoxifen (Sigma-Aldrich, CAS-No. 10540-29-1), MPP dihydrochloride (Sigma-Aldrich, CAS-No. 911295-24-4), ZK164015 (Tocris, CAS-No. 177583-70-9), and (Z)-4-hydroxytamoxifen (Tocris, CAS-No. 68047-06-3). The same protocols as in example 2 were used with the following deviations: • Tamoxifen: Cells were grown for 24 h and then treated for 144 h with 10^−8 and 10^−6 M tamoxifen. • MPP dihydrochloride: Cells were grown for 24 h and then treated for 144 h with 10^−8 and 10^−6 M MPP dihydrochloride. • ZK164015: Cells were grown for 24 h and then treated for 48 h with 10^−9 and 10^−7 M ZK164015. • (Z)-4-hydroxytamoxifen: Cells were grown for 24 h and then treated for 72 h with 10^−9 and 10^−8 M (Z)-4-hydroxytamoxifen.
Subsequently, quantitative image analysis was performed using a pipeline that builds on the CellProfiler software (Carpenter et al., Genome Biol., 2006; 7(10):R100.) for segmentation and extraction of cellular parameters, and on the CellProfiler Analyst software (Jones et al., BMC Bioinformatics, 2008 Nov. 15; 9:482) for parameter-based classification of cells. In the segmentation process, primary objects (nuclei) were identified from DAPI staining by global thresholding using Otsu's method. […]

Assay [2] relates to MCF7/vBOS cells (DSM ACC3321). Kind of assay: Prevention of fulvestrant-induced discontinuous adherens junctions by estrogenic compounds. The following applies: for prevention of the formation of discontinuous adherens junctions: along with 10^−8 M fulvestrant; for minimal concentration preventing the fulvestrant-induced phenotype: co-treatment with 10^−8 M fulvestrant, 48 h. In kind it is cell-based, human. As for the experimental part:
Briefly, MCF7/vBOS cells were grown on glass coverslips in multi-well tissue culture plates (TPP) for 24 h and then treated for 48 h with 0.1% EtOH (solvent control), the anti-estrogen fulvestrant in the fixed concentration of 10^−8 M and different concentrations (10^−10 M, 10^−9 M, 10^−8 M, 10^−7 M) of the ERα agonist 17β-estradiol. The solvent control was used as a positive control and fulvestrant at a concentration of 10^−8 M without 17β-estradiol addition was used as a negative control. Sample preparation and immunofluorescence microscopy was performed as described in example 2 above. After 48 hours the fraction of cells displaying discontinuous adherens junctions was determined by CellProfiler/CellProfer-analyst software (see example 7).
The same protocols as in example 2 were used with the following deviations: • Bisphenol A: Cells were grown for 24 h and then treated for 48 h with 10^−8 M fulvestrant and 10^−5 or 10^−4 M bisphenol A, respectively, diluted in DSMO. • Nonylphenol: Cells were grown for 24 h and then treated for 48 h with 10^−8 M fulvestrant and 10^−5 or 10^−4 nonylphenol, respectively, diluted in ethanol.
Briefly, cell culture, sample preparation and immunofluorescence microscopy was performed as described in example 2 (ERα signalling inhibition (fulvestrant titration)) and example 5 (ERα signalling restoration (fulvestrant at 10^−8 M in combination with 17β-estradiol titration))..
Subsequently, quantitative image analysis was performed using a pipeline that builds on the CellProfiler software (Carpenter et al., Genome Biol., 2006; 7(10):R100.) for segmentation and extraction of cellular parameters, and on the CellProfiler Analyst software (Jones et al., BMC Bioinformatics, 2008 Nov. 15; 9:482) for parameter-based classification of cells. In the segmentation process, primary objects (nuclei) were identified from DAPI staining by global thresholding using Otsu's method. Next, primary objects served as seeding points for identification of secondary objects (cell membranes) at a defined distance. Finally, tertiary objects (cytoplasm) were defined by subtracting primary from secondary objects. The resulting object masks were then applied to extract cellular parameters including area, shape, distribution and variation of pixel intensities, and mean intensity from the corresponding greyscale images using the CellProfiler MeasureObjectSizeShape, MeasureObjectRadialDistribution, MeasureTexture, and MeasureObjectIntensity modules, and stored in a database file. This database file was then imported into the Classifier module of the CellProfiler Analyst software for supervised training with a subset of cells, and subsequent parameter-based automatic classification of all cells within the entire image dataset. For immunofluorescence images, supervised training based on cell membrane features (E-Cad channel) was conducted with two classes representing continuous adherens junctions (Continuous AJs') and discontinuous adherens junctions (Discontinuous AJs′) (about 30 cells for each class). After the supervised training process had been completed, the entire image dataset from a specific experiment was evaluated and all identified cells were automatically classified into corresponding classes according to their individual parameters. The fraction of cells representing ‘Continuous AJs’ and ‘Discontinuous AJs’ classes were finally graphically represented in stacked bar plots.

As for `CC/C(=C(\c1ccc(O)cc1)c1ccc(OCCN(C)C)cc1)c1ccccc1` [(Z)-4-hydroxytamoxifen], in assay [1], the “Concentration (M) suitable for manifestation of the discontinuous basolateral adherens junctions phenotype” value (shortened to “Concentration (M) suitable”) is listed as 10^−9-10^−7 M, the “Culture time (h) typically required for formation of discontinuous basolateral adherens junctions” value (shortened to “Culture time (h) typically required”) was 48 to 144 h and the “formation of discontinuous adherens junctions (E-Cadherin staining)” value (from here on “formation … (E-Cadherin staining)”) is “Discontinuous adherens junctions became apparent”.

Regarding `CC(C)(c1ccc(O)cc1)c1ccc(O)cc1` [bisphenol A], in assay [2], the “prevention of the formation of discontinuous adherens junctions” value (shortened to “prevention”) is “prevention of the formation of discontinuous adherens junctions” and the “minimal concentration preventing the fulvestrant-induced phenotype” value is reported as 10^−5 M.

For `CC/C(=C(\c1ccccc1)c1ccc(OCCN(C)C)cc1)c1ccccc1` [Tamoxifen], in assay [1], the “Concentration (M) suitable” value was 10^−6-10^−5 M, the “Culture time (h) typically required” value fell in the range of 30 to 168 h and the “formation … (E-Cadherin staining)” value was “Discontinuous adherens junctions became apparent”.

In the case of `C[C@]12CC[C@@H]3c4ccc(O)cc4CC[C@H]3[C@@H]1CC[C@@H]2O` [17β-estradiol], the “fraction of cells with continuous adherens junctions (CellProfiler quantification)” value in assay [2] (10^−8 M fulvestrant plus different concentrations, 48 hours) is on record as “restores the fraction of cells with continuous adherens junctions”. Moreover, in assay [2], the “prevention” value is recorded as “prevention of the formation of discontinuous adherens junctions” and the “minimal concentration preventing the fulvestrant-induced phenotype” value is given as 10^−9 M.

For `Cc1c(-c2ccc(O)cc2)nn(-c2ccc(O)cc2)c1-c1ccc(OCCN2CCCCC2)cc1.Cl.Cl` [MPP dihydrochloride], in assay [1], the “Concentration (M) suitable” value was 10^−6-10^−5 M, the “Culture time (h) typically required” value fell in the range of 30 to 168 h and the “formation … (E-Cadherin staining)” value is “Discontinuous adherens junctions became apparent”.

Turning to `CCCCCS(=O)(=O)CCCCCCCCCCn1c(-c2ccc(O)cc2)c(C)c2cc(O)ccc21` [ZK 164015], in assay [1], the “Concentration (M) suitable” value is recorded as 10^−7-10^−5 M, the “Culture time (h) typically required” value lay in the range of 24 to 96 h and the “formation … (E-Cadherin staining)” value is reported as “Discontinuous adherens junctions became apparent”.

In the case of nonylphenol, in assay [2], the “prevention” value is recorded as “prevention of the formation of discontinuous adherens junctions” and the “minimal concentration preventing the fulvestrant-induced phenotype” value is 10^−5 M.
